Results on five compounds are retold here after patent publication US7642270B2, “5-oxo-5,8-dihydro-pyrido-pyrimidine as inhibitors of c-fms kinase” (Janssen Pharmaceutica N.V., priority 2005, dated 2010).

The target of one assay is c-fms (Homo sapiens, UniProt P07333). The experiment in a line: c-fms autophosphorylation, fluorescence polarization competition immunoassay. Format: biochemical. The note with it: 10 nM c-fms, 1 mM ATP, 5 mM MgCl2, 45 min room temperature; averages of three independent measurements; read-out: c-fms Autophosphorylation IC50.
Sequence of c-fms (P07333 20-972): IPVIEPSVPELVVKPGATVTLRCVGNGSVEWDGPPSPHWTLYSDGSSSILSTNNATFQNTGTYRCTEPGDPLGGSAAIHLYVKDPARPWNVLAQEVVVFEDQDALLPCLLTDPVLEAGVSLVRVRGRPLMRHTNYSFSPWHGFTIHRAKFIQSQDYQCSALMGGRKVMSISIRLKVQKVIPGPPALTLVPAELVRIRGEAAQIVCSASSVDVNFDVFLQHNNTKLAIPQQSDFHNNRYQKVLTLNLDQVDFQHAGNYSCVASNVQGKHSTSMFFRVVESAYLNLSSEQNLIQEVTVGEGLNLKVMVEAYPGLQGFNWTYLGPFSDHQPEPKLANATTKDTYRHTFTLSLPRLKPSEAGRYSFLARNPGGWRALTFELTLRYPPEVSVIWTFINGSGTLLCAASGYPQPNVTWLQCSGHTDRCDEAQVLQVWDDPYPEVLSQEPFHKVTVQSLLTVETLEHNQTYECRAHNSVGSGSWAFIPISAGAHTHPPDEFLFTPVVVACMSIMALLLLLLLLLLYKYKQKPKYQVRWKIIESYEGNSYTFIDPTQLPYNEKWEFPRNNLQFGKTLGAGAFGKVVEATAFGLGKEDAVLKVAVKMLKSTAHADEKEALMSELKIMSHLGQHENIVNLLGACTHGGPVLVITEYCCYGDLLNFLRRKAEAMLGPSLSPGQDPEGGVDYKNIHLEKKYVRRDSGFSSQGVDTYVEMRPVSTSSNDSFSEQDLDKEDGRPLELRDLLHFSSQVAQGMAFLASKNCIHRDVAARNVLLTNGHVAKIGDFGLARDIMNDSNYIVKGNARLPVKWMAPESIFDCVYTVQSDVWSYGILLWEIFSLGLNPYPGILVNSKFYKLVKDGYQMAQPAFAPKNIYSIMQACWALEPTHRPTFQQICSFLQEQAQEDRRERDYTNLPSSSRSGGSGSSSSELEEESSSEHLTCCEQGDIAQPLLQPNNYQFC
In another assay the target is CSF-1R (Homo sapiens, UniProt P07333). The experiment in a line: Peptide (non-phosphorylated) assay: fluorescence polarization competition immunoassay of CSF-1R phosphorylation of synthetic CSF-1R555-568 peptide. Format: biochemical. The note with it: 0.7 nM CSF-1R, 308 μM […], 1 mM ATP, 5 mM MgCl2, 80 min room temperature; mean of at least three determinations; read-out: c-fms Peptide IC50. The method, then:
Peptide (Non-Phosphorylated) Assay
The kinase reaction was initiated by adding 1 μL of 10 mM ATP in assay buffer. […] Positive and negative control wells were included on each plate, where 4% DMSO in assay buffer was substituted for the compound; in addition, positive control wells received 1.2 μL of 50 mM EDTA before the start of the reaction.
The plates were covered and incubated at room temperature for 80 min. Reactions were stopped by addition of 1.2 μL of 50 mM EDTA. Each well then received 10 μL of a 1:1:3 mixture of 10× anti-phosphotyrosine antibody, 10×PTK green tracer, and FP dilution buffer, respectively (Cat. # P2837, Invitrogen, Carlsbad, Calif.). The plates were covered, incubated for 30 min at room temperature, and the fluorescence polarization was read on an Analyst plate reader (Molecular Devices).

Sequence of CSF-1R (P07333 20-972): as above

Turning to `NC(=O)c1cn(-c2ccc3c(c2)CCC3)c2nc(Nc3cccc(N4CCNCC4)c3)ncc2c1=O` [Cpd 52, 8-Indan-5-yl-5-oxo-2-(3-piperazin-1-yl-phenylamino)-5,8-dihydro-pyrido[2,3-d]pyrimidine-6-carboxylic acid amide], the half-maximal inhibitory concentration (IC50) at c-fms was found to be 5 nM; at CSF-1R it was 0.42 nM.

`CNC(=O)c1cn(-c2ccc3c(c2)CCC3)c2nc(Nc3cccc(N4CCNCC4)c3)ncc2c1=O` [Cpd 53, 8-Indan-5-yl-5-oxo-2-(3-piperazin-1-yl-phenylamino)-5,8-dihydro-pyrido[2,3-d]pyrimidine-6-carboxylic acid methyl amide]: the results for the half-inhibitory concentration (IC50) on c-fms and on CSF-1R were 8 nM and 0.46 nM, respectively.

As to `CCNC(=O)c1cn(-c2ccc3c(c2)CCC3)c2nc(Nc3cccc(N4CCNCC4)c3)ncc2c1=O` [Cpd 54, 8-Indan-5-yl-5-oxo-2-(3-piperazin-1-yl-phenylamino)-5,8-dihydro-pyrido[2,3-d]pyrimidine-6-carboxylic acid ethyl amide], the IC50 on c-fms is 11 nM; at CSF-1R, 1.1 nM.

For `CC1CN(c2cccc(Nc3ncc4c(=O)c(C(N)=O)cn(-c5ccc6c(c5)CCC6)c4n3)c2)CC(C)N1` (stereo not shown) [Cpd 55, 2-[3-(3,5-Dimethyl-piperazin-1-yl)-phenylamino]-8-indan-5-yl-5-oxo-5,8-dihydro-pyrido[2,3-d]pyrimidine-6-carboxylic acid amide], the IC50 was 6 nM at c-fms and 0.51 nM at CSF-1R.

`CNC(=O)c1cn(-c2ccc3c(c2)CCC3)c2nc(Nc3cccc(N4CC(C)NC(C)C4)c3)ncc2c1=O` (stereo not shown) [Cpd 56, 2-[3-(3,5-Dimethyl-piperazin-1-yl)-phenylamino]-8-indan-5-yl-5-oxo-5,8-dihydro-pyrido[2,3-d]pyrimidine-6-carboxylic acid methyl amide]: the values for the IC50 at c-fms and on CSF-1R were 10 nM and 1.1 nM, respectively.
